Test results: PubChem BioAssay AID234 (DTP/NCI, 2004)
Where “and” joins values, the source holds several entries; their conditions need not be identical. Equal values may be shown once. Records with an inconclusive call do not appear.

Test system: C3AKF1 mice, hamster liver cystadenocarcinoma s.c., tumor weight T/C
Assay: NCI In Vivo Anticancer Drug Screen. Data for tumor model Cystadenocarcinoma, Liver (No. 1) (Hamster) (subcutaneous) in C3AKF1 (CHKRF1) mice
Details: endpoint: mean tumor weight, schedule: Q01DX010 (ip), higher = larger tumour
Description: The antitumor activity of compounds was measured in mice bearing transplantable tumors. Survival or tumor size were measured and the results are expressed as the measurement made in the treated group (T) divided by the measurement made in the vehicle treated control group (C). The tumor model used in this assay is Cystadenocarcinoma, Liver (No. 1) (Hamster) (subcutaneous) in C3AKF1 (CHKRF1) mice

[1] = dose: 15.0 mg/kg/injection, vehicle: carboxymethylcellulose (CMC)
[2] = dose: 30.0 mg/kg/injection, vehicle: carboxymethylcellulose (CMC)
[3] = dose: 60.0 mg/kg/injection, vehicle: carboxymethylcellulose (CMC)
[4] = dose: 25.0 mg/kg/injection, vehicle: carboxymethylcellulose (CMC)
[5] = dose: 200.0 mg/kg/injection, vehicle: carboxymethylcellulose (CMC)
[6] = dose: 1.0 mg/kg/injection, vehicle: carboxymethylcellulose (CMC)
[7] = dose: 12.0 mg/kg/injection, vehicle: carboxymethylcellulose (CMC)

With `O=C1N(Cl)C(=O)C(c2ccc(Cl)cc2)(c2ccc(Cl)cc2)N1Cl` as the molecule, how does the T/C [1] read?
Its T/C is 67 % of control.

And the T/C [2]?
The T/C was 85 % of control.

What about the T/C [3] of the same molecule?
The T/C was 61 % of control.

For `Nc1ncnc2c1ncn2C1CCCO1` (stereo not drawn), which T/C [4] is on record?
Its T/C is 107 % of control.

And the T/C (dose: 50.0 mg/kg/injection, vehicle: carboxymethylcellulose (CMC))?
The T/C was 107 % of control.

What about the T/C [5] of the same molecule?
The T/C was 69 % of control.

For `Cc1ccc(N2CCN(CCCN3CCN(c4ccc(Cl)cc4)CC3)CC2)cc1`, which T/C (dose: 7.5 mg/kg/injection, vehicle: carboxymethylcellulose (CMC)) is on record?
The T/C was 94 % of control.

What about the T/C [1] of the same molecule?
Its T/C is 98 % of control.

What about the T/C [2] of the same molecule?
Its T/C is 94 % of control.

Which T/C [2] does the source give for `CCC1=C(c2cc(Cl)c3ccccc3c2OCC(=O)O)OC(CC)(C(=O)c2cc(Cl)c3ccccc3c2OCC(=O)O)CC1` (stereo not drawn) here?
The T/C was 90 % of control.

What about the T/C [3] of the same molecule?
Its T/C is 87 % of control.

What about the T/C (dose: 120.0 mg/kg/injection, vehicle: carboxymethylcellulose (CMC)) of the same molecule?
Its T/C is 64 % of control.

With `O=P(N1CC1)(N1CC1)N1CC1` as the molecule, how does the T/C (dose: 0.5 mg/kg/injection, vehicle: carboxymethylcellulose (CMC)) read?
Its T/C is 93 % of control.

What about the T/C [6] of the same molecule?
The T/C was 65 % of control.

What about the T/C (dose: 2.0 mg/kg/injection, vehicle: carboxymethylcellulose (CMC)) of the same molecule?
Its T/C is 71 % of control.

What about the T/C (dose: 4.0 mg/kg/injection, vehicle: carboxymethylcellulose (CMC)) of the same molecule?
Its T/C is 48 % of control.

Which results are given for `COc1ccc(-c2c(CC(=O)O)c3cc(OC)ccc3n2Cc2ccc(Cl)cc2)cc1`?
T/C (dose: 125.0 mg/kg/injection, vehicle: carboxymethylcellulose (CMC)): 90 % of control; T/C (dose: 250.0 mg/kg/injection, vehicle: carboxymethylcellulose (CMC)): 100 % of control; T/C (dose: 500.0 mg/kg/injection, vehicle: carboxymethylcellulose (CMC)): 100 % of control

With `O=P(c1ccccc1)(N1CC1)N1CC1` as the molecule, how does the T/C (dose: 3.0 mg/kg/injection, vehicle: saline) read?
Its T/C is 108 % of control.

What about the T/C (dose: 6.0 mg/kg/injection, vehicle: saline) of the same molecule?
The T/C was 98 % of control.

What about the T/C (dose: 12.0 mg/kg/injection, vehicle: saline) of the same molecule?
The T/C was 76 % of control.

What about the T/C (dose: 24.0 mg/kg/injection, vehicle: saline) of the same molecule?
Its T/C is 212 % of control.

What does the source list for `Nc1nc(SCc2ccccc2Cl)c2ncn(C3OC(CO)C(O)C3O)c2n1` (stereo not drawn)?
T/C (dose: 6.0 mg/kg/injection, vehicle: carboxymethylcellulose (CMC)): 104 % of control; T/C [7]: 85 % of control; T/C [4]: 112 % of control

What does the source list for `O=C(Nc1ccc(C2=NCCN2)cc1)c1ccc(C(=O)Nc2ccc(C3=NCCN3)cc2)c(Cl)c1`?
T/C (dose: 5.0 mg/kg/injection, vehicle: saline): 83 % of control; T/C (dose: 10.0 mg/kg/injection, vehicle: saline): 114 % of control; T/C (dose: 20.0 mg/kg/injection, vehicle: saline): 80 % of control

`NC(=O)c1ccc(NC(=O)CCC(=O)Nc2ccc(C(N)=O)cn2)nc1` was tested. Which T/C (dose: 1.25 mg/kg/injection, vehicle: carboxymethylcellulose (CMC)) did it give?
Its T/C is 92 % of control.

And the T/C (dose: 2.5 mg/kg/injection, vehicle: carboxymethylcellulose (CMC))?
The T/C was 72 % of control.

Which T/C (dose: 100.0 mg/kg/injection, vehicle: carboxymethylcellulose (CMC)) does the source give for `S=c1c2[nH]cnc2ncn1CCSC1=NC=NC2=NC=NC21` (stereo not drawn) here?
The T/C was 95 % of control.

And the T/C [5]?
Its T/C is 100 % of control.

What about the T/C (dose: 400.0 mg/kg/injection, vehicle: carboxymethylcellulose (CMC)) of the same molecule?
The T/C was 97 % of control.

What about the T/C (dose: 600.0 mg/kg/injection, vehicle: carboxymethylcellulose (CMC)) of the same molecule?
Its T/C is 93 % of control.

What does the source list for `Cc1c2ccc3ccccc3c2c[n+]2ccccc12`?
T/C (dose: 3.0 mg/kg/injection, vehicle: carboxymethylcellulose (CMC)): 153 % of control; T/C [7]: 89 % of control

Which T/C (dose: 37.5 mg/kg/injection, vehicle: carboxymethylcellulose (CMC)) does the source give for `O=C(O)Cc1ccc(C2CCCCC2)cc1` here?
Its T/C is 118 % of control.

And the T/C (dose: 75.0 mg/kg/injection, vehicle: carboxymethylcellulose (CMC))?
Its T/C is 115 % of control.

What about the T/C (dose: 150.0 mg/kg/injection, vehicle: carboxymethylcellulose (CMC)) of the same molecule?
The T/C was 114 % of control and 121 % of control.

And the T/C (dose: 300.0 mg/kg/injection, vehicle: carboxymethylcellulose (CMC))?
The T/C was 94 % of control.

For `CC(C)NCC(=O)c1ccc(O)c(O)c1`, which T/C (dose: 50.0 mg/kg/injection, vehicle: saline) is on record?
Its T/C is 75 % of control.

And the T/C (dose: 100.0 mg/kg/injection, vehicle: saline)?
The T/C was 59 % of control.

What about the T/C (dose: 200.0 mg/kg/injection, vehicle: saline) of the same molecule?
The T/C was 90 % of control.

Which T/C [6] does the source give for `CCCCn1cnc2c(=S)nc(N)[nH]c21` here?
The T/C was 82 % of control.

And the T/C (dose: 7.0 mg/kg/injection, vehicle: carboxymethylcellulose (CMC))?
Its T/C is 60 % of control and 77 % of control.

And the T/C [1]?
The T/C was 50 % of control.

And the T/C [2]?
The T/C was 49 % of control.
